Measurements: patent US20110306639A1, “HYDROCARBYLIDENE NITROHYDROZINECARBOXIMIDAMIDES AND A METHOD FOR MAKING THE SAME, AS WELL AS THEIR USES AS AN INSECTICIDE” (priority 2008, published 2011)
Like-named read-outs stand apart in the source and are kept apart here.

Assays:
myzus persicae = settings: in vivo
asparagus caterpillar = settings: in vivo

| Structure (SMILES) | mortality(%) Helicoverpa armigera (500 μg/mL) (Helicoverpa armigera; 500 μg/mL, 48 hours) [%] | mortality(%) myzus persicae (600 μg/mL) (myzus persicae) [%] | mortality(%) asparagus caterpillar (500 μg/mL) (asparagus caterpillar) [%] | mortality(%) Helicoverpa armigera (500 μg/mL) (Helicoverpa armigera; in vivo) [%] |
| --- | --- | --- | --- | --- |
| CNC(=N[N+](=O)[O-])NN=CC(C)C [Compound 1, 2-isobutylidene-N-methyl-N′-nitrohydrozinecarboximidamide] | 40 | 4.7 | 40 | – |
| CCNC(=N[N+](=O)[O-])NN=CC(C)C [Compound 2] | 60 | 53.6 | 50 | – |
| CCCNC(=N[N+](=O)[O-])NN=CC(C)C [Compound 3] | 30 | 14.4 | 20 | – |
| CCCCNC(=N[N+](=O)[O-])NN=CC(C)C [Compound 4] | 10 | 31.6 | 20 | – |
| C=CCNC(=N[N+](=O)[O-])NN=CC(C)C [Compound 5] | 90 | 27.8 | 30 | – |
| C#CCNC(=N[N+](=O)[O-])NN=CC(C)C [Compound 6] | 100 | 37.9 | 60 | – |
| CC(C)C=NNC(=N[N+](=O)[O-])NCc1ccccc1 [Compound 7] | 40 | 18.4 | 50 | – |
| CC(C)C=NNC(=N[N+](=O)[O-])NCc1ccc(Cl)nc1 [Compound 8] | – | 87.0 | 40 | 60 |
| CCC=NNC(=N[N+](=O)[O-])NCC [Compound 9] | 60 | 54.2 | 20 | – |
| CCC=NNC(=N[N+](=O)[O-])NCCC [Compound 10] | 80 | 78.3 | 20 | – |
| CCC=NNC(=N[N+](=O)[O-])NCCCC [Compound 11] | 50 | 1.5 | 50 | – |
| C=CCNC(=N[N+](=O)[O-])NN=CCC [Compound 12] | 30 | – | 40 | – |
| C#CCNC(=N[N+](=O)[O-])NN=CCC [Compound 13] | 50 | 5.0 | 0 | – |
| CCC=NNC(=N[N+](=O)[O-])NCc1ccccc1 [Compound 14] | 40 | 18.8 | 30 | – |
| CNC(=N[N+](=O)[O-])NN=CC=C(C)CCC=C(C)C [Compound 16] | – | 31.4 | 70 | 30 |
| CCNC(=N[N+](=O)[O-])NN=CC=C(C)CCC=C(C)C [Compound 17] | – | 19.8 | 40 | 40 |
| CCCNC(=N[N+](=O)[O-])NN=CC=C(C)CCC=C(C)C [Compound 18] | – | – | 60 | 50 |
| CCCCNC(=N[N+](=O)[O-])NN=CC=C(C)CCC=C(C)C [Compound 19] | – | 67.5 | 60 | 40 |
| C=CCNC(=N[N+](=O)[O-])NN=CC=C(C)CCC=C(C)C [Compound 20] | – | 5.2 | 50 | 0 |
| C#CCNC(=N[N+](=O)[O-])NN=CC=C(C)CCC=C(C)C [Compound 21] | – | 12.8 | 30 | 20 |
| CC(C)=CCCC(C)=CC=NNC(=N[N+](=O)[O-])NCc1ccccc1 [Compound 22] | – | 7.1 | 20 | 20 |
| CC(C)=CCCC(C)=CC=NNC(=N[N+](=O)[O-])NCc1ccc(Cl)nc1 [Compound 23] | – | 19.8 | 40 | 30 |
| CCCC=NNC(=N[N+](=O)[O-])NCC [Compound 24] | 40 | 4.7 | 0 | – |
| CCCC=NNC(=N[N+](=O)[O-])NCCC [Compound 25] | 50 | – | 10 | – |
| CCCC=NNC(=N[N+](=O)[O-])NCCCC [Compound 26] | 20 | 65.3 | 60 | – |
| C=CCNC(=N[N+](=O)[O-])NN=CCCC [Compound 27] | 30 | 65.1 | 40 | – |

| Structure (SMILES) | mortality(%) Helicoverpa armigera (500 μg/mL) (Helicoverpa armigera; 500 μg/mL, 48 hours) [%] | mortality(%) myzus persicae (600 μg/mL) (myzus persicae) [%] | mortality(%) asparagus caterpillar (500 μg/mL) (asparagus caterpillar) [%] | mortality(%) Helicoverpa armigera (500 μg/mL) (Helicoverpa armigera; in vivo) [%] |
| --- | --- | --- | --- | --- |
| C#CCNC(=N[N+](=O)[O-])NN=CCCC [Compound 28] | 60 | 11.4 | 70 | – |
| CCCC=NNC(=N[N+](=O)[O-])NCc1ccccc1 [Compound 29] | 60 | – | 50 | – |
| CCCC=NNC(=N[N+](=O)[O-])NCc1ccc(Cl)nc1 [Compound 30] | – | 80.7 | 40 | 40 |
| CC=CC=NNC(=N[N+](=O)[O-])NC [Compound 31] | 60 | 42.6 | 10 | – |
| CC=CC=NNC(=N[N+](=O)[O-])NCC [Compound 32] | 0 | 48.0 | 0 | – |
| CC=CC=NNC(=N[N+](=O)[O-])NCCC [Compound 33] | 70 | 19.5 | 70 | – |
| CC=CC=NNC(=N[N+](=O)[O-])NCCCC [Compound 34] | 40 | – | 60 | – |
| C=CCNC(=N[N+](=O)[O-])NN=CC=CC [Compound 35] | 20 | 56.7 | 60 | – |
| C#CCNC(=N[N+](=O)[O-])NN=CC=CC [Compound 36] | 30 | 35.0 | 50 | – |
| CC=CC=NNC(=N[N+](=O)[O-])NCc1ccccc1 [Compound 37] | 70 | – | 20 | – |
| CC=CC=NNC(=N[N+](=O)[O-])NCc1ccc(Cl)nc1 [Compound 38] | – | 1.2 | 0 | 30 |
| C=CC=NNC(=N[N+](=O)[O-])NCC [Compound 39] | 20 | – | 40 | – |
| C=CC=NNC(=N[N+](=O)[O-])NCCC [Compound 40] | 30 | 8.3 | 20 | – |
| C=CC=NNC(=N[N+](=O)[O-])NCCCC [Compound 41] | 20 | 74.7 | 10 | – |
| C=CC=NNC(=N[N+](=O)[O-])NCC=C [Compound 42] | 20 | 37.1 | 0 | – |
| C#CCNC(=N[N+](=O)[O-])NN=CC=C [Compound 43] | 40 | – | 20 | – |
| C=CC=NNC(=N[N+](=O)[O-])NCc1ccccc1 [Compound 44] | 30 | 45.8 | 0 | – |
| CCCCCCC=NNC(=N[N+](=O)[O-])NCCC [Compound 45] | 20 | 16.9 | 20 | – |
| CCCCCCC=NNC(=N[N+](=O)[O-])NCCCC [Compound 46] | 20 | – | 30 | – |
| C=CCNC(=N[N+](=O)[O-])NN=CCCCCCC [Compound 47] | 0 | 23.7 | 0 | – |
| C#CCNC(=N[N+](=O)[O-])NN=CCCCCCC [Compound 48] | 30 | 13.0 | 0 | – |
| CCCCCCC=NNC(=N[N+](=O)[O-])NCc1ccccc1 [Compound 49] | 50 | 28.6 | 0 | – |
| CCCNC(=N[N+](=O)[O-])NN=Cc1ccc(N(C)C)cc1 [Compound 70] | – | – | 80 | 40 |
| CN(C)c1ccc(C=NNC(=N[N+](=O)[O-])NCc2ccccc2)cc1 [Compound 71] | – | – | 90 | 30 |
| O=[N+]([O-])N=C(NCc1ccc(Cl)nc1)NN=Cc1ccc(Cl)cc1 [Compound 108] | – | – | 50 | 50 |
| COc1ccccc1C=NNC(=N[N+](=O)[O-])NCc1ccc(Cl)nc1 [Compound 109] | – | – | 90 | 40 |
